Test results published in patent US20240317826A1, “COMPOSITIONS AND METHODS FOR TREATING AND/OR I[…] AGENT FOR TREATING HIV-1 INFECTIONS” (priority 2021, published 2024).
“Also recorded” adds a separate entry of the source. Where two headings read alike, the source gives them in different places.

Assays:
IN/TAR RNA complex = molecular target: T1, IN/TAR RNA complex (Human immunodeficiency virus type 1 group M subtype B, UniProt P04585); test: RNA-co-IP in 293T cells: TAR RNA bound to YFP-IN; type: cell-based, HIV-1
T1 construct: expressed in transfected cells; host or cells: 293T cells
Description: Panels d-g show the input RNA and protein levels within transfected cells: the RT-PCR analysis of input TAR RNA levels (panel d); Immunoblot analysis of input HA-INI1 (panel e); input YFP-IN (panel f); and GAPDH level for loading control (panel g). Lane 1 is RNA-co-IP using isotype IgG control antibodies and lanes 2-7 are RNA-co-IP using anti-GFP antibodies to pull down IN. There is ˜1000 fold inhibition of RNA and INI1 binding to IN in the presence of SP-38 peptide (compare lane 6 to lane 5).
For RNA-co-IP, […] were transfected with pCMV-Tat and pLTR-luc plasmids along with pYFP-IN and pCGN-INI1. Immunopreciptation was carried out as above using α-GFP (Cell Signal, Catalogue #2555; Lot #8; 5 ag/sample) antibodies. The immunecomplexes were then split into two and RNA was isolated from one half using Trizol reagent (Invitrogen Catalogue #15596026) and subjected to qRT-PCR using Early RT primers. The other half was subjected to immunoblot analysis.
To determine if stapled peptides can inhibit interaction of IN with TAR RNA in cells, we carried out RNA-co-IP experiments (FIG. 8e). YFP-IN and TAR RNA were expressed by co-transfecting plasmids pYFP-fN, pLTIR-luc and pTat in 293T cells. Cells were treated with SP-38 or SP-83 (D225G mutant) peptides. After transfection, the cell lysates were treated with DNaseI and subjected to immunoprecipitation (IP) using α-GFP antibodies to pull down YFP-IN and associated complexes. RNA was separated from the immune complexes and subjected to RT-PCR to detect bound TAR RNA (FIG. 8e, panel a). Immunoblot analysis of bound proteins were carried out using: α-HA to detect bound HA-INI1 (FIG. 8e, panel b) and α-GFP to detect YFP-IN (FIG. 8e, panel c). RT-PCR of the RNA isolated from cell lysate was used as input control (FIG. 8e, panel d). Immunoblot analysis of total proteins from cell lysates as input control were carried out using α-HA to detect input HA-INI1 (FIG. 8e, panel e), α-GFP to detect input YFP-IN (FIG. 8e, panel f), and α-GAPDH to detect GAPDH as loading control (FIG. 8e, panel g). […] Expression of both GFP-IN and TAR RNA in the cells led to successful RNA-co-IP by α-GFP antibodies (FIG. 8e, lane 5).

IN-TAR RNA interaction = molecular target: T2, IN-TAR RNA interaction (Human immunodeficiency virus type 1 group M subtype B, UniProt P04585); test: Alpha interaction assay: effect of stapled peptides on IN-TAR RNA interaction; type: binding, HIV-1; conditions: in vitro
T2 construct: made in house; host or cells: bacteria (E. coli inferred from the pGEX vector)
Procedure: FIG. 8A-FIG. 8D show quantitative alpha interaction assay to determine the effect of stapled peptides on the interaction of IN and IN-CTD with INI1 and INI1183-304 or TAR RNA. […] Fixed concentrations of GST-IN, 6His-INI1, and TAR RNA were incubated with increasing concentration of stapled peptides and the interaction was detected as Alpha Score. The IC50 values were determined by fitting the data to a four-parameter dose-response curve using Graph Pad prism. All the graphs represent the average of three independent experiments (Mean+/−SEM).
AlphaScreen proximity assay to detect the protein-protein and protein-RNA interactions. AlphaScreen assay was carried out using PerkinElmer Alpha-Lisa-6His Acceptor beads (Catalogue #AL128C), Alpha-Screen-GST donor beads (Catalogue #6765300), GST-tagged and His-tagged proteins for protein-protein interactions; and Alpha-Screen Streptavidin donor beads (Catalogue #6760002 S), Alpha-Lisa-GST acceptor beads (Catalogue #AL110C), Biotin-labeled RNA and GST-tagged proteins for protein-RNA interactions. The reaction was carried out according to the manufacturer's protocol in a reaction buffer contacting (25 mM HEPES pH 7.4, 100 mM NaCl (or 500 mM NaCl), 1 mM DTT, 1 mM MgCl2 and BSA 1 mg ml/ml). The mixture of proteins or protein and RNA were incubated for 1 hr at room temperate with shaking in a multi micro-plate shaker and then 20 ag ml/ml accepter beads were added and incubated for additional 1 h with shaking. Finally, 20 ag ml^−1 of donor beads were added and further incubated for 1 hr. The Alpha score readings were measured using Alpha-compatible Envision 2105 multi-plate reader (Perkin-Elmer). All the experiments related to this method were carried out 3 to 5 times and data were analyzed by using Graph Pad Prism 9 version 9.0.0 (GraphPad Software, CA). The RNA sequences used in this assay are listed in the Table 6d and were obtained from Integrated DNA technology.
These peptides were tested for their ability to disrupt the interaction between IN-INI1 and IN-TAR RNA in vitro.

[1] = tested on: INI1 incorporation into HIV-1 virions; test: Immunoblot of virions for incorporation of INI1; type: cell-based; conditions: Western analysis of concentrated virions
Description: (§1) FIG. 12A-FIG. 12C show effects of stapled peptides on virion morphogenesis and incorporation of INI1. […] The middle panel is the expanded version and the lower panel represents the carton of the two viral particles from the middle panel. Note the empty capsid shell and eccentric electron dense material, typical of morphologically defective virions. […] About 200 virions each were scored to quantify four different types of morphological forms—Conical (Co), Eccentric (Ec), Immature (Im) and Unclear (Uc).
We tested the incorporation of INI1 into the virions. Electron microscopy analysis of ˜200 particles and Western analysis of concentrated virions were carried out to determine the presence or absence of INI1 (FIG. 12b).

[2] = tested on: HIV-1 particle production; test: Particle production (p24) in 293T cells transfected with pNL4-3 in the presence of stapled peptides; type: cell-based; conditions: p24 in virions and cell lysates
Procedure: FIG. 10A-FIG. 10B show the mechanism of HIV-1 inhibition by Stapled peptides. […] (1) Transfection of pNL4-3 plasmid in to 293T cells in the presence of stapled peptides and determine the particle production by analyzing p24 in the supernatant and cell lysates. (2) Virions produced are analyzed for their infectivity in the absence of stapled peptides. (3) Virions are subjected to Transmission Electron Microscopy (TEM) to determine the particle morphogenesis. (4) Purified and concentrated virions are subjected to Western blot analysis for the presence of INI1.
We hypothesized that INI1-derived Stapled peptides and drugs target IN and disrupt IN/RNA and IN/INI1 interactions. […] To test this hypothesis and to determine the mechanism of inhibition by stapled peptides, we tested the effect of stapled peptides on late events (production of HIV-1 particles and particle morphogenesis) and further tested the infectivity of particles that are produced (FIG. 10a).

[3] = tested on: HIV-1 virion morphogenesis; test: TEM analysis of morphology of virions produced in the presence of stapled peptides; type: cell-based; conditions: ~200 virions each
Description: as §1
To determine if the virions produced in the presence of stapled peptides have similar defect in virion morphogenesis, we carried out TEM analysis of the virions (˜200 each).

| Substance | inhibition of IN/RNA complex formation within cells (IN/TAR RNA complex) | inhibition of RNA binding to IN in RNA-co-IP (IN/TAR RNA complex; RT-PCR of bound TAR RNA) | inhibition of IN/RNA complex formation within cells (IN/TAR RNA complex; listed as SP83 (D225G)) | inhibition of IN-TAR RNA interactions (IN-TAR RNA interaction) | incorporation of INI1 into virions [1] | effect on particle production [2] | virion particle morphology [3] | IC50, inhibition of IN-TAR RNA interactions (IN-TAR RNA interaction) |
| --- | --- | --- | --- | --- | --- | --- | --- | --- |
| lys-Leu-Met-Thr-Pro-Glu-Met-Phe-S5-Glu-Ile-Leu-S5-Cys-Gly-Leu-Asn [SP83] | not | not | does not inhibit | not | incorporated |  |  |  |
| lys-Leu-Met-Thr-Pro-Glu-Met-Phe-S5-Glu-Ile-Leu-S5-Cys-Asp-Leu-Asn [SP38] | potently inhibits |  |  |  | not incorporated; also recorded: lack of INI1 incorporation into virions | did not affect | large number of morphologically defective “eccentric” particles and very few conical capsids; also recorded: increased proportion of eccentric virions | low nanomolar |
